Earlier results on 25 substances are cited in US20090285840A1, “METHODS FOR TREATING PATHOLOGICAL NEOVASCULARIZATION” (New York Society for the Ruptured and Crippled Maintaining …, priority 2008, published 2009).

This data set relates to human ADAM9 mRNA. Set-up: concentration or dose not given beside the values. The settings on record: percentage inhibition data reported in US 2004/0092466, Example 15; target SEQ ID NO 94; cited from earlier work.

Consider “23 (CCTCTTCATCCTTTGCAGTT; listed as DNA, chemistry not given here) [compound 23]”, for which the “% INHIB” value was 84%. With “24 (GTTTCCATTGGTCCAAATCT; listed as DNA, chemistry not given here) [compound 24]”, the “% INHIB” value is 77%. For “25 (CAAGATTATGACCCAATTCA; listed as DNA, chemistry not given here) [compound 25]”, the “% INHIB” value is recorded as 69%. As to “26 (GAATATTAAGAAGGCAGTTT; listed as DNA, chemistry not given here) [compound 26]”, the “% INHIB” value is 27%. “27 (CTGCTTTATTATAGCCATGA; listed as DNA, chemistry not given here) [compound 27]”: the “% INHIB” value is 85%.

As to “28 (ATGACTGAATAAGACTTATT; listed as DNA, chemistry not given here) [compound 28]”, the “% INHIB” value is listed as 68%. For “29 (TACATTAATGATAACTAAGG; listed as DNA, chemistry not given here) [compound 29]”, the “% INHIB” value is 68%. For “30 (AAGATTTTATAATTGCTCCT; listed as DNA, chemistry not given here) [compound 30]”, the “% INHIB” value is 71%. As to “31 (CGATAAATGATGTGCTCAAA; listed as DNA, chemistry not given here) [compound 31]”, the “% INHIB” value is listed as 36%. For “32 (CAGTGATTTGTCCAAACACA; listed as DNA, chemistry not given here) [compound 32]”, the “% INHIB” value is given as 30%. Regarding “33 (ATTCATTCCAAGATTATGAC; listed as DNA, chemistry not given here) [compound 33]”, the “% INHIB” value is recorded as 75%. On to “34 (TTAATAGCAAGCTTTGAAAG; listed as DNA, chemistry not given here) [compound 34]”, for which the “% INHIB” value was 68%. As for “35 (GGGTCTGTGGCAAGACAGCT; listed as DNA, chemistry not given here) [compound 35]”, the “% INHIB” value was 65%. Regarding “36 (TCTTTGCTCCACAGGAACAA; listed as DNA, chemistry not given here) [compound 36]”, the “% INHIB” value is 77%. Regarding “37 (CAATGGATGAATTATGAACT; listed as DNA, chemistry not given here) [compound 37]”, the “% INHIB” value is 62%. With “38 (TCCGTATCCTTTAGTCTCAC; listed as DNA, chemistry not given here) [compound 38]”, the “% INHIB” value is reported as 80%. Turning to “39 (TTCCTTCTTTCTCCAGCCTA; listed as DNA, chemistry not given here) [compound 39]”, the “% INHIB” value is 81%. On to “40 (GTGAGGGAACTATATAAAGG; listed as DNA, chemistry not given here) [compound 40]”, for which the “% INHIB” value was 66%. In the case of “41 (AGGAATTAAGTTTCCCTGAG; listed as DNA, chemistry not given here) [compound 41]”, the “% INHIB” value is recorded as 74%.

In the case of “42 (AAAATTTTACGATCCATACC; listed as DNA, chemistry not given here) [compound 42]”, the “% INHIB” value is 72%. As for “43 (CTGGAACATCTGATCCTAGC; listed as DNA, chemistry not given here) [compound 43]”, the “% INHIB” value is 77%. As to “44 (CAAATGTCTCCACAGTGATT; listed as DNA, chemistry not given here) [compound 44]”, the “% INHIB” value is recorded as 79%. Consider “45 (GCTATTGTGAACGAATGTCA; listed as DNA, chemistry not given here) [compound 45]”, for which the “% INHIB” value is given as 86%. “46 (CAAGATTCTAGAGTATGATG; listed as DNA, chemistry not given here) [compound 46]”: the “% INHIB” value is 85%.

“47 (ATCATGTCATACCTTTCCTT; listed as DNA, chemistry not given here) [compound 47]”: the “% INHIB” value is 81%.
